Data as given in patent US6552196B2, “Quinolone carboxylic acid derivatives” (Dong Wha Pharmaceutical Industrial Co., Ltd., priority 1997, dated 2003).
Converted amounts (≈) assume the structure as drawn.

Key:
Assay in all cases: In vitro antibacterial activity (MIC), agar dilution
Assay type in all cases: cell-based
[1] = test system: Enterobacter clocae 1321E; conditions: 2-fold agar dilution, Muller-Hinton agar, 18 hours at 37° C., read-out: minimum inhibitory concentration (MIC)
Protocol: (§1) 10^7 cfu/ml of bacteria were inoculated and cultured for 18 hours at 37° C. and then the antibacterial activities were measured. For the methicillin resistant strains the activities were measured after 48 hours of cultivation at 30° C. Hoechst Standard strains were used for the testings.

Enterobacter clocae P99 = conditions: 2-fold agar dilution, Muller-Hinton agar, 18 hours at 37° C., read-out: minimum inhibitory concentration (MIC)
Protocol: as §1

Esherichia coli 078 = conditions: 2-fold agar dilution, Muller-Hinton agar, 18 hours at 37° C., read-out: minimum inhibitory concentration (MIC)
Protocol: as §1

Esherichia coli 1507E = conditions: 2-fold agar dilution, Muller-Hinton agar, 18 hours at 37° C., read-out: minimum inhibitory concentration (MIC)
Protocol: as §1

Esherichia coli DC0 = conditions: 2-fold agar dilution, Muller-Hinton agar, 18 hours at 37° C., read-out: minimum inhibitory concentration (MIC)
Protocol: as §1

Esherichia coli DC2 = conditions: 2-fold agar dilution, Muller-Hinton agar, 18 hours at 37° C., read-out: minimum inhibitory concentration (MIC)
Protocol: as §1

Esherichia coli TEM = conditions: 2-fold agar dilution, Muller-Hinton agar, 18 hours at 37° C., read-out: minimum inhibitory concentration (MIC)
Protocol: as §1

[2] = test system: Klebsiella aerogenes 1522E; conditions: 2-fold agar dilution, Muller-Hinton agar, 18 hours at 37° C., read-out: minimum inhibitory concentration (MIC)
Protocol: as §1

Klebsiella oxytoca 1082E = conditions: 2-fold agar dilution, Muller-Hinton agar, 18 hours at 37° C., read-out: minimum inhibitory concentration (MIC)
Protocol: as §1

[3] = test system: Pseudomonas aeruginosa 1592E; conditions: 2-fold agar dilution, Muller-Hinton agar, 18 hours at 37° C., read-out: minimum inhibitory concentration (MIC)
Protocol: as §1

[4] = test system: Pseudomonas aeruginosa 1771M; conditions: Pseudomonas aeruginosa, 1771M, 18 h, read-out: minimum inhibitory concentration (MIC)
Protocol: as §1

[5] = test system: Pseudomonas aeruginosa 1771; conditions: 2-fold agar dilution, Muller-Hinton agar, 18 hours at 37° C., read-out: minimum inhibitory concentration (MIC)
Protocol: as §1

[6] = test system: Pseudomonas aeruginosa 9027; conditions: 2-fold agar dilution, Muller-Hinton agar, 18 hours at 37° C., read-out: minimum inhibitory concentration (MIC)
Protocol: as §1

Salmonella typhimurium = conditions: Salmonella enterica, 2-fold agar dilution, Muller-Hinton agar, 18 hours at 37° C., read-out: minimum inhibitory concentration (MIC)
Protocol: as §1

[7] = test system: Staphylococcus aureus 285; conditions: 2-fold agar dilution, Muller-Hinton agar, 18 hours at 37° C., read-out: minimum inhibitory concentration (MIC)
Protocol: as §1

[8] = test system: Staphylococcus aureus 503; conditions: 2-fold agar dilution, Muller-Hinton agar, 18 hours at 37° C., read-out: minimum inhibitory concentration (MIC)
Protocol: as §1

[9] = test system: Staphylococcus aureus SG511; conditions: 2-fold agar dilution, Muller-Hinton agar, 18 hours at 37° C., read-out: minimum inhibitory concentration (MIC)
Protocol: as §1

[10] = test system: Streptococcus faecium MD 8b; conditions: Enterococcus faecium, MD8B, 2-fold agar dilution, Muller-Hinton agar, 18 hours at 37° C., read-out: minimum inhibitory concentration (MIC)
Protocol: as §1

[11] = test system: Streptococcus pyogens 308A; conditions: 2-fold agar dilution, Muller-Hinton agar, 18 hours at 37° C., read-out: minimum inhibitory concentration (MIC)
Protocol: as §1

[12] = test system: Streptococcus pyogens 77A; conditions: 2-fold agar dilution, Muller-Hinton agar, 18 hours at 37° C., read-out: minimum inhibitory concentration (MIC)
Protocol: as §1

Work on `CON=C1CN(c2cc3c(cc2F)c(=O)c(C(=O)O)cn3C2CC2)CC12CNC2.CS(=O)(=O)O` [Example 2, 1-Cyclopropyl-6-fluoro-7-[8-(methoxyimino)-2,6-diazaspiro[3,4]oct-6-yl]-4-oxo-1,4-dihydro-3-quinolinecarboxylic acid methane sulfonate] yielded an MIC [1] of 0.025 mg/L, an MIC (Enterobacter clocae P99) of 0.049 mg/L and an MIC (Esherichia coli 078) of 0.025 mg/L. For the same molecule, the MIC (Esherichia coli 1507E) was 0.049 mg/L, the MIC (Esherichia coli DC0) was 0.198 mg/L and the MIC (Esherichia coli DC2) was 0.013 mg/L. It also gave an MIC (Esherichia coli TEM) of 0.049 mg/L, an MIC [2] of 0.098 mg/L and an MIC (Klebsiella oxytoca 1082E) of 0.007 mg/L. It also gave an MIC [3] of 0.391 mg/L, an MIC [4] of 0.391 mg/L and an MIC [5] of 0.391 mg/L. It also gave an MIC [6] of 0.781 mg/L, an MIC (Salmonella typhimurium) of 0.025 mg/L and an MIC [7] of 0.049 mg/L. It also gave an MIC [8] of 0.049 mg/L, an MIC [9] of 0.013 mg/L and an MIC [10] of 0.098 mg/L. The MIC [11] was 0.195 mg/L and the MIC [12] was 0.007 mg/L.
Molecule `CON=C1CN(c2c(F)cc3c(=O)c(C(=O)O)cn(C4CC4)c3c2F)CC12CNC2` [Example 3, 1-Cyclopropyl-6,8-difluoro-7-[8-(methoxyimino)-2,6-diazaspiro[3,4]oct-6-yl]-4-oxo-1,4-dihydro-3-quinolinecarboxylic acid] has an MIC [1] of 0.025 mg/L (≈ 0.0598 µM), an MIC (Enterobacter clocae P99) of 0.049 mg/L (≈ 0.117 µM) and an MIC (Esherichia coli 078) of 0.098 mg/L (≈ 0.234 µM). It also gave an MIC (Esherichia coli 1507E) of 0.049 mg/L (≈ 0.117 µM), an MIC (Esherichia coli DC0) of 0.391 mg/L (≈ 0.935 µM) and an MIC (Esherichia coli DC2) of 0.025 mg/L (≈ 0.0598 µM). For the same molecule, the MIC (Esherichia coli TEM) was 0.049 mg/L (≈ 0.117 µM), the MIC [2] was 0.098 mg/L (≈ 0.234 µM) and the MIC (Klebsiella oxytoca 1082E) was 0.007 mg/L (≈ 0.0167 µM). The MIC [3] was 0.781 mg/L (≈ 1.87 µM), the MIC [4] was 0.781 mg/L (≈ 1.87 µM) and the MIC [5] was 1.56 mg/L (≈ 3.74 µM). For the same molecule, the MIC [6] was 1.56 mg/L (≈ 3.74 µM), the MIC (Salmonella typhimurium) was 0.025 mg/L (≈ 0.0598 µM) and the MIC [7] was 0.049 mg/L (≈ 0.117 µM). It also gave an MIC [8] of 0.098 mg/L (≈ 0.234 µM), an MIC [9] of 0.025 mg/L (≈ 0.0598 µM) and an MIC [10] of 0.098 mg/L (≈ 0.234 µM). It also gave an MIC [11] of 0.391 mg/L (≈ 0.935 µM) and an MIC [12] of 0.025 mg/L (≈ 0.0598 µM).
